Type in all cases: functional, Cricetulus griseus
Common to all, as to conditions: Epithelial cell

Assay [1] concerns Cricetinae gen. sp. The assay can be described thus: In vitro inhibitory activity tested for reverse keratinization of epithelial cells in hamster trachael organ assay at 10E-9 M concentration; (Activity culture/total culture 2/7).
Assay [2] concerns Cricetinae gen. sp. The assay can be described thus: In vitro inhibitory activity tested for reverse keratinization of epithelial cells in hamster trachael organ assay at 10E-9 M concentration; (Activity culture/total culture 1/6).
In assay [3] the test system is Cricetinae gen. sp. The assay can be described thus: In vitro inhibitory activity tested for reverse keratinization of epithelial cells in hamster trachael organ assay at 10E-9 M concentration; (Activity culture/total culture 1/7).
In assay [4] the test system is Cricetinae gen. sp. The assay can be described thus: In vitro inhibitory activity tested for reverse keratinization of epithelial cells in hamster trachael organ assay at 10E-9 M concentration; (Activity culture/total culture 419/474).

Molecules are shown by their SMILES.

`CCOc1ccc2c(c1)C(C)=CC(C)(C)N2C(=O)/C=C(C)/C=C/C=C(C)/C=C/C1=C(C)CCCC1(C)C` came in with an inhibition at 0.001 µM in the assay with Cricetinae gen. sp. [1] of 28.6%.
In the case of `CC1=C(/C=C/C(C)=C/C=C/C(C)=C/C(=O)Oc2ccc(O)c(C(C)(C)C)c2)C(C)(C)CCC1`, the inhibition at 0.001 µM in the assay on Cricetinae gen. sp. [2] came out at 16.7%.
In turn, `CC1=C(/C=C/C(C)=C/C=C/C(C)=C/C(=O)Oc2ccc(O)cc2C(C)(C)C)C(C)(C)CCC1` returned an inhibition at 0.001 µM in the assay on Cricetinae gen. sp. [3] of 14.3%.
Take `CC1=C(/C=C/C(C)=C/C=C/C(C)=C/C(=O)O)C(C)(C)CCC1` [TRETINOIN]: the inhibition at 0.001 µM with Cricetinae gen. sp. [4] came out at 88.4%.
`CC1=C(/C=C/C(C)=C/C=C/C(C)=C/C(=O)Oc2c(C)c(C)c3c(c2C)CC[C@@](C)(CCC[C@H](C)CCC[C@H](C)CCCC(C)C)O3)C(C)(C)CCC1`: in the assay with Cricetinae gen. sp. [2], the inhibition at 0.001 µM was 16.7%.

The values are drawn from ChEMBL document CHEMBL1121935, “Syntheses and activities of antioxidant derivatives of retinoic acids” (1982).
